Key:
Type in all cases: biochemical
PI3Kγ = target: T1, PI3Kγ (Homo sapiens, UniProt P48736); experiment: In vitro determination of the PI3K enzyme inhibitory activity in the cell free assay (ADP-Glo Kinase Assay), PI3Kγ; conditions: ATP 30 μM, read-out: PI3K gamma inhibition
T1 construct: purchased Millipore Ltd (Billerica, Mass.)
Description: (§1) In vitro Determination of the PI3K Enzyme Inhibitory Activity in the Cell Free Assay
(§2) Human recombinant proteins PI3Kα, PI3Kβ, PI3Kγ and PI3Kδ were purchased from Millipore Ltd (Billerica, Mass.). Compounds were dissolved at 0.5 mM in DMSO and were tested at different concentrations for their activity against PI3Ks using the ADP-Glo™ Kinase Assay (Promega, Madison Wis.) according to the manufacturer's instructions.
(§3) Briefly, the kinase reactions were performed in 384-well white plates (Greiner Bio-One GmbH, Frickenhausen). Each well was loaded with 0.1 μl of test compounds and 2.5 μl of 2× reaction buffer (40 mM Tris pH7.5, 0.5 mM EGTA, 0.5 mM Na3VO4, 5 mM β-glycerophosphate, 0.1 mg/ml BSA, 1 mM DTT), containing 50 μM PI and PS substrates (L-α-phosphatidylinositol sodium salt and L-α-phosphatidyl-L-serine, Sigma-Aldrich, St. Louis Mo.) and the PI3K recombinant proteins (PI3Kγ 0.25 ng/μl, PI3Kδ 1 ng/μl, PI3Kα 0.125 ng/μl, PI3Kβ 1 ng/μl).
(§4) The reactions were started by adding 2.5 μl of 2×ATP solution to each well (final concentrations: PI3Kγ ATP 30 μM; PI3Kδ ATP 80 μM; PI3KαATP 50 μM; PI3Kβ ATP 100 μM) and incubated for 60 min at room temperature. Subsequently, each kinase reaction was incubated for 40 min with 5 μl ADP-Glo™ Reagent, allowing depletion of unconsumed ATP. Then, the Kinase Detection Reagent (10 μl) was added in each well to convert ADP to ATP and to allow the newly synthesized ATP to be measured using a luciferase/luciferin reaction. Following 60 min incubation, the luminescence signal was measured using a Wallac EnVision® multilabel reader (PerkinElmer, Waltham Mass.).
(§5) Curve fitting and IC50 calculation were carried out using a four-parameter logistic model in XLfit (IDBS, Guilford, UK) for Microsoft Excel (Microsoft, Redmont, Wash.).

PI3Kα = target: T2, PI3Kα (Homo sapiens, UniProt P42336); experiment: In vitro determination of the PI3K enzyme inhibitory activity in the cell free assay (ADP-Glo Kinase Assay), PI3Kα; conditions: ATP 50 μM, read-out: PI3K alpha inhibition
T2 construct: purchased Millipore Ltd (Billerica, Mass.)
T2 sequence (P42336 whole entry): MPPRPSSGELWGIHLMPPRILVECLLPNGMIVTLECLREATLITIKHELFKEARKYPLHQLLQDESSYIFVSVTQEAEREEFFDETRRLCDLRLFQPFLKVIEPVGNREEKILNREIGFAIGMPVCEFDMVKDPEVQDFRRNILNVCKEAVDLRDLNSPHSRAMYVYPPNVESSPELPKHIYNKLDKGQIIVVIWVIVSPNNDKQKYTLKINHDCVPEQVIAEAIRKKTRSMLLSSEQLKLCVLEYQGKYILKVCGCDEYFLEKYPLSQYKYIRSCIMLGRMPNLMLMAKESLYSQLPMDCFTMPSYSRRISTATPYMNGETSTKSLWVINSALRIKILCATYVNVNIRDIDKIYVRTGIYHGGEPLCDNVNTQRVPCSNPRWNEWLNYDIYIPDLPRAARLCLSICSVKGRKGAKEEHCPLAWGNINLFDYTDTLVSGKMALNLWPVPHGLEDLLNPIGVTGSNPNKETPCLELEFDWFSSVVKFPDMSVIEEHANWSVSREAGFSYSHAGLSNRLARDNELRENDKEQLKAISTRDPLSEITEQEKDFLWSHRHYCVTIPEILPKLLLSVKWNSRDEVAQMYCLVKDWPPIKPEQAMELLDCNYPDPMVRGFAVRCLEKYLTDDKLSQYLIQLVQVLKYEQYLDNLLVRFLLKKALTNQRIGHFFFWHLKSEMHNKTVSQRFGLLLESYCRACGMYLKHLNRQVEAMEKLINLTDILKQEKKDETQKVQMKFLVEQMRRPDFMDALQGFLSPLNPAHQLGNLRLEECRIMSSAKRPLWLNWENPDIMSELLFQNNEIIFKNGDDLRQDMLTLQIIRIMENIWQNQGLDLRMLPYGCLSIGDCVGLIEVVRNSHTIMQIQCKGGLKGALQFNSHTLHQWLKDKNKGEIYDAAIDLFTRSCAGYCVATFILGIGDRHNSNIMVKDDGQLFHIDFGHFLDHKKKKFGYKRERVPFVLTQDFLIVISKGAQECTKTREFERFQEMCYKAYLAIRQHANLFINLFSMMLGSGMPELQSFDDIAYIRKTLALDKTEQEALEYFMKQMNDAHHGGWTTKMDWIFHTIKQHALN
T2 sequence (P27986 whole entry partner): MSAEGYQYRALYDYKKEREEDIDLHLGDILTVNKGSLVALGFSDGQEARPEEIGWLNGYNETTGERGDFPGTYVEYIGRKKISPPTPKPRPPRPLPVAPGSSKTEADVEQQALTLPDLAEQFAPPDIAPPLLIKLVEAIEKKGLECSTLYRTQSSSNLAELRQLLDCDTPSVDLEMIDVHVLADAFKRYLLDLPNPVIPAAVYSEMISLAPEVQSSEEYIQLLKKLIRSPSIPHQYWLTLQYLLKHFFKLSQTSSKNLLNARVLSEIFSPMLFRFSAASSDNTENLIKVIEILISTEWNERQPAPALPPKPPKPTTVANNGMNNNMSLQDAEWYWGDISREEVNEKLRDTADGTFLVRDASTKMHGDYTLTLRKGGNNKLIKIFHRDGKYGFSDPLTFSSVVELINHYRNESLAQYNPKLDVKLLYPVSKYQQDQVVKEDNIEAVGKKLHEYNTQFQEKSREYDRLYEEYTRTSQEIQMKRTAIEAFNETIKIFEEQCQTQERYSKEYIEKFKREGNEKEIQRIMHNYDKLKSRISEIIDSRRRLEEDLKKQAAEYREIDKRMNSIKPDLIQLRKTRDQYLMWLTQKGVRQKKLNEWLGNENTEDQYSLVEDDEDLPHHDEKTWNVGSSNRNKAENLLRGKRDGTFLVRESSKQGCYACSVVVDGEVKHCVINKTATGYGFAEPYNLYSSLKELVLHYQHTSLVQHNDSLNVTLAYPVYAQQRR
Description: as §1, §2, §3, §4, §5

PI3Kβ = target: T3, PI3Kβ (Homo sapiens, UniProt P42338); experiment: In vitro determination of the PI3K enzyme inhibitory activity in the cell free assay (ADP-Glo Kinase Assay), PI3Kβ; conditions: ATP 100 μM, read-out: PI3K beta inhibition
T3 construct: purchased Millipore Ltd (Billerica, Mass.)
T3 sequence (P42338 whole entry): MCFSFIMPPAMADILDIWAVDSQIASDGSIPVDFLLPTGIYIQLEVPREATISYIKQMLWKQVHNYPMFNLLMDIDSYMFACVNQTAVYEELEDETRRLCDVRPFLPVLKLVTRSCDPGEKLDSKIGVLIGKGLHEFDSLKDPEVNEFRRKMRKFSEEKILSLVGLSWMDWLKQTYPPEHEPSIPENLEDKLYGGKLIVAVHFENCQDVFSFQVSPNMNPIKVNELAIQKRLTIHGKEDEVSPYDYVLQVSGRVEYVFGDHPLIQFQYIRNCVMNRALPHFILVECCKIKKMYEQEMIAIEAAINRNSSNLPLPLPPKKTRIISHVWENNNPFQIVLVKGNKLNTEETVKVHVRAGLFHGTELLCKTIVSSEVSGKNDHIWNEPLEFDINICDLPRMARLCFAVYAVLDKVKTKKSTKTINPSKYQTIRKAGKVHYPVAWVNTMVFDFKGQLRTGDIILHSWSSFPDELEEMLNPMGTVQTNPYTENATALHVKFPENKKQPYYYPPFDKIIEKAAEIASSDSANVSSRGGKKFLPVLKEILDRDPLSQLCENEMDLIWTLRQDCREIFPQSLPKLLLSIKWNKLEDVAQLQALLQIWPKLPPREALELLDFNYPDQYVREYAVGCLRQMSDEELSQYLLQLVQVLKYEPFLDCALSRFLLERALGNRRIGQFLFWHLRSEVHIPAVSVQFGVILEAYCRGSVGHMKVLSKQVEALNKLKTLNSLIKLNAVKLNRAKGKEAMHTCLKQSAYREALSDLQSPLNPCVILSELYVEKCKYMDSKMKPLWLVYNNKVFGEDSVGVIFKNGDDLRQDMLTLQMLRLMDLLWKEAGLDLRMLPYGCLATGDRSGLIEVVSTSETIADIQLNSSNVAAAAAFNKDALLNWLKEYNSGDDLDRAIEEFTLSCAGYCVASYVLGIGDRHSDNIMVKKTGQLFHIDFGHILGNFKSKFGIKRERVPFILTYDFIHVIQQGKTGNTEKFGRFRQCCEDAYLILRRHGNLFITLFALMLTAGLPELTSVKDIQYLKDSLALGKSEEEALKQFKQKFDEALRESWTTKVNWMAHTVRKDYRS
T3 sequence (P27986 whole entry partner): as the sequence (P27986 whole entry partner) above
Description: as §1, §2, §3, §4, §5

PI3Kδ = target: T4, PI3Kδ (Homo sapiens, UniProt O00329); experiment: In vitro determination of the PI3K enzyme inhibitory activity in the cell free assay (ADP-Glo Kinase Assay), PI3Kδ; conditions: ATP 80 μM, read-out: PI3K delta inhibition
T4 construct: purchased Millipore Ltd (Billerica, Mass.)
T4 sequence (O00329 whole entry): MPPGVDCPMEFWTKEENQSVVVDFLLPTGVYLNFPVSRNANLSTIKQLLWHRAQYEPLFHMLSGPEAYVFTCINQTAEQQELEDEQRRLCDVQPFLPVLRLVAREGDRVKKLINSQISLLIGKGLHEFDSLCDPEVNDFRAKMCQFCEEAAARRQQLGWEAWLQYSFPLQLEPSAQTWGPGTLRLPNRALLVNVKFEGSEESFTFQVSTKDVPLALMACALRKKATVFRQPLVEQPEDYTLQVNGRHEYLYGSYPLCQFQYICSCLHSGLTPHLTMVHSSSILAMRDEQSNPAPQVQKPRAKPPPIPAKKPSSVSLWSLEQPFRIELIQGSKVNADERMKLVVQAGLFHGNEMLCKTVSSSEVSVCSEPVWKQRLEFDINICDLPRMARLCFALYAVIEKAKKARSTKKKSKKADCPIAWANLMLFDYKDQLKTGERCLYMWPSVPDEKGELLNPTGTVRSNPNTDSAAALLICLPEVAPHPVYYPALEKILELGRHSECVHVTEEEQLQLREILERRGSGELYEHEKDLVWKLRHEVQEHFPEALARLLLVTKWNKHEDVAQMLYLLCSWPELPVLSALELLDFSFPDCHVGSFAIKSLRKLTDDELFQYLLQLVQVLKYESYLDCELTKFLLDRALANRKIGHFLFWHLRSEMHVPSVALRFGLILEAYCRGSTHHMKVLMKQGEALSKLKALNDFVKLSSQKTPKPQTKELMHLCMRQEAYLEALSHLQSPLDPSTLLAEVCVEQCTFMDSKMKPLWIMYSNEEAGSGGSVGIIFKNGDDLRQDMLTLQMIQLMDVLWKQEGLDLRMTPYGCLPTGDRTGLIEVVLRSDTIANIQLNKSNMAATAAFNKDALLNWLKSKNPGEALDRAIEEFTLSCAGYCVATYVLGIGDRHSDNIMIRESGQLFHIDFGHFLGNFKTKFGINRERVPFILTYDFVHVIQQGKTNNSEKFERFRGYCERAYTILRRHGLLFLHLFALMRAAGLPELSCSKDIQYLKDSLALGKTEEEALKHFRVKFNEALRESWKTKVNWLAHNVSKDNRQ
T4 sequence (P27986 whole entry partner): as the sequence (P27986 whole entry partner) above
Description: as §1, §2, §3, §4, §5

T1 sequence (P48736 whole entry): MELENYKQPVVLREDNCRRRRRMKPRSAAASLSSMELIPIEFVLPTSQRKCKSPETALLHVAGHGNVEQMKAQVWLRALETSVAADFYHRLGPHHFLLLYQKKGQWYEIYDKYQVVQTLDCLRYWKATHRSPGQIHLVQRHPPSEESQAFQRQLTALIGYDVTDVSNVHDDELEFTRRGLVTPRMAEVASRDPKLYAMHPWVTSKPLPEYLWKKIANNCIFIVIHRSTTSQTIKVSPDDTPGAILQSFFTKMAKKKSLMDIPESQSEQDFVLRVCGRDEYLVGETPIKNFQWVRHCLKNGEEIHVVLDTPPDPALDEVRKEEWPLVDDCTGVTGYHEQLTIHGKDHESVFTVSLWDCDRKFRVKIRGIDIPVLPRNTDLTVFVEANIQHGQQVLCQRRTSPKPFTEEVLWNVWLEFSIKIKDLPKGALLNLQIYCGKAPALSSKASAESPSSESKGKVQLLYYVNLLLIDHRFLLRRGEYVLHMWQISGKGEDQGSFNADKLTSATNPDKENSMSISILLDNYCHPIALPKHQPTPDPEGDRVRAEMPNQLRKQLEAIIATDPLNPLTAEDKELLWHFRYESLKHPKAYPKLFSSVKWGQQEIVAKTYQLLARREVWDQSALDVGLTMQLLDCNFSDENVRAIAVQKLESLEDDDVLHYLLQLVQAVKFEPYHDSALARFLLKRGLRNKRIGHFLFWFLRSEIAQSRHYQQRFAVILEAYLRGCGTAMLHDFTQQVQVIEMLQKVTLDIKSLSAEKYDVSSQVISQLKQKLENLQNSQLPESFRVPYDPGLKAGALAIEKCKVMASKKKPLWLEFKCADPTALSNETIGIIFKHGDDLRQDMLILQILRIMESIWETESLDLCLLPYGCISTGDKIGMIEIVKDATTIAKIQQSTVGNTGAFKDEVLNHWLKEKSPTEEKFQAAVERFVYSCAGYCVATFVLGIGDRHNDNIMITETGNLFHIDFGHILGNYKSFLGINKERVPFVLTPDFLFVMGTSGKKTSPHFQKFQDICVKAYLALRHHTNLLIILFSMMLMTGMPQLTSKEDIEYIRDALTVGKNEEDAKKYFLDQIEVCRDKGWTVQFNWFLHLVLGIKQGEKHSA

Row | Structure (SMILES) | IC50 (PI3Kγ) | IC50 (PI3Kα) | IC50 (PI3Kβ) | IC50 (PI3Kδ)
1 | Nc1ncnc2c1c(-c1cc(O)cc(F)c1)nn2Cc1cc2ccccn2c1-c1cccnc1 [Example 98, 3-(4-amino-1-{[3-(pyridin-3-yl)indolizin-2-yl]methyl}-1H-pyrazolo[3,4-d]pyrimidin-3-yl)-5-fluorophenol] | 10 to 1000 nM | 10 to 1000 nM | 10 to 1000 nM | 10 to 1000 nM
2 | C[C@H](c1cc2ccccn2c1-c1cccc(CN(C)C)c1)n1nc(-c2cc(O)cc(F)c2)c2c(N)ncnc21 (single isomer, unassigned) [Example 93a, 3-{4-amino-1-[1-(3-{3-[(dimethylamino)methyl]phenyl}indolizin-2-yl)ethyl]-1H-pyrazolo[3,4-d]pyrimidin-3-yl}-5-fluorophenol] | > 1000 nM | 10 to 1000 nM | 10 to 1000 nM | < 10 nM
3 | CC(c1cc2ccccn2c1-c1ccccc1)n1nc(-c2cc(O)cc(F)c2)c2c(N)ncnc21 (stereo not shown) [Example 85, 3-{4-amino-1-[1-(3-phenylindolizin-2-yl)ethyl]-1H-pyrazolo[3,4-d]pyrimidin-3-yl}-5-fluorophenol] | > 1000 nM | > 1000 nM | 10 to 1000 nM | 10 to 1000 nM
4 | CC(c1cc2ccccn2c1-c1ccc(CN2CCOCC2)cc1)n1nc(-c2cc(O)cc(F)c2)c2c(N)ncnc21 (stereo not shown) [Example 91, 3-[4-amino-1-(1-{3-[4-(morpholin-4-ylmethyl)phenyl]indolizin-2-yl}ethyl)-1H-pyrazolo[3,4-d]pyrimidin-3-yl]-5-fluorophenol] | > 1000 nM | > 1000 nM | > 1000 nM | 10 to 1000 nM
5 | CC(c1cc2ccccn2c1-c1ccccn1)n1nc(-c2cccc(S(N)(=O)=O)c2)c2c(N)ncnc21 (stereo not shown) [Example 73, 3-(4-amino-1-{1-[3-(pyridin-2-yl)indolizin-2-yl]ethyl}-1H-pyrazolo[3,4-d]pyrimidin-3-yl)benzene-1-sulfonamide] | > 1000 nM | > 1000 nM | > 1000 nM | 10 to 1000 nM
6 | COc1cc(F)cc(-c2nn(C(C)c3cc4ccccn4c3-c3ccccn3)c3ncnc(N)c23)c1 (stereo not shown) [Example 62, 3-(3-fluoro-5-methoxyphenyl)-1-{1-[3-(pyridin-2-yl)indolizin-2-yl]ethyl}-1H-pyrazolo[3,4-d]pyrimidin-4-amine] | > 1000 nM | > 1000 nM | > 1000 nM | 10 to 1000 nM

Results, then the compound that gave them:

Row | IC50 (PI3Kγ) | IC50 (PI3Kα) | IC50 (PI3Kβ) | IC50 (PI3Kδ) | Structure (SMILES)
7 | > 1000 nM | > 1000 nM | > 1000 nM | 10 to 1000 nM | Cc1ccn2c(-c3ccccn3)c(C(C)n3nc(-c4cc(O)cc(F)c4)c4c(N)ncnc43)cc2c1 (stereo not shown) [Example 105, 3-(4-amino-1-{1-[7-methyl-3-(pyridin-2-yl)indolizin-2-yl]ethyl}-1H-pyrazolo[3,4-d]pyrimidin-3-yl)-5-fluorophenol]
8 | 10 to 1000 nM | 10 to 1000 nM | 10 to 1000 nM | < 10 nM | CC(c1cc2ccccn2c1N1CCN(C)CC1=O)n1nc(-c2cc(O)cc(F)c2)c2c(N)ncnc21 (stereo not shown) [Example 132, 1-(2-{1-[4-amino-3-(3-fluoro-5-hydroxyphenyl)-1H-pyrazolo[3,4-d]pyrimidin-1-yl]-ethyl}indolizin-3-yl)-4-methylpiperazin-2-one]
9 | > 1000 nM | > 1000 nM | 10 to 1000 nM | 10 to 1000 nM | CC(c1cc2cccnn2c1-c1cccc(CN(C)C)c1)n1nc(-c2cc(O)cc(F)c2)c2c(N)ncnc21 (stereo not shown) [Example 128, 3-{4-amino-1-[1-(7-{3-[(dimethylamino)-methyl]phenyl}pyrrolo[1,2-b]pyridazin-6-yl)-ethyl]-1H-pyrazolo[3,4-d]pyrimidin-3-yl}-5-fluorophenol]
10 | 10 to 1000 nM | > 1000 nM | 10 to 1000 nM | < 10 nM | CC(c1cc2ccccn2c1-c1ccn(CCN(CCO)CCO)n1)n1nc(-c2cc(O)cc(F)c2)c2c(N)ncnc21 (stereo not shown) [Example 149, 3-(4-amino-1-{1-[3-(1-{2-[bis(2-hydroxyethyl)amino]ethyl}-1H-pyrazol-3-yl)indolizin-2-yl]ethyl}-1H-pyrazolo[3,4-d]pyrimidin-3-yl)-5-fluorophenol]

Source: patent publication US9527869B2, “Indolizine derivatives as phoshoinositide 3-kinases inhibitors” (CHIESI FARMACEUTICI S.P.A., priority 2014, dated 2016)
